Earlier results in patent US7476665B2, “Benzodiazepine CGRP receptor antagonists” (Merck & Co., Inc., priority 2003, dated 2009).
Where two headings read alike, the source gives them in different places. Where no end group is shown, it is not given here.

Experiments:
[1] = system: facial blood flow; details: marmoset, electrical stimulation of the trigeminal ganglion (Doods et al. 2000)
[2] = system: middle meningeal artery; details: rats, electrical stimulation of the dura mater, prior administration (Williamson et al. 1997)
[3] = system: facial blood flow; details: rat, trigeminal ganglion stimulation (Escott et al. 1995)

| Molecule | effect on increase of facial blood flow [1] | effect on increase of middle meningeal artery diameter [2] | effect on increase of facial blood flow [3] |
| --- | --- | --- | --- |
| NCCCC[C@H](NC(=O)[C@@H](Cc1cc(Br)c(O)c(Br)c1)NC(=O)N1CCC(N2Cc3ccccc3NC2=O)CC1)C(=O)N1CCN(c2ccncc2)CC1 [BIBN4096BS] | blocked |  |  |
| CGRP(8-37): a peptide CGRP antagonist (VTHRLAGLLSRSGGVVKNNFVPTNVGSKAF; ends and bridges not checked; UniProt P06881 90-119, looked up, fragment) |  | blocked | inhibited |
